Assay results: ChEMBL document CHEMBL1133779, “A refined 3-dimensional QSAR of cytochrome P450 2C9: computational predictions of drug interactions” (J Med Chem, 2000)

The compounds below were run against T1, Cytochrome P450 2C9 (Homo sapiens, UniProt P11712) (assay: Binding affinity measured on human cytochrome P450 2C9 (CYP2C9) enzyme).
T1 sequence (P11712 whole entry): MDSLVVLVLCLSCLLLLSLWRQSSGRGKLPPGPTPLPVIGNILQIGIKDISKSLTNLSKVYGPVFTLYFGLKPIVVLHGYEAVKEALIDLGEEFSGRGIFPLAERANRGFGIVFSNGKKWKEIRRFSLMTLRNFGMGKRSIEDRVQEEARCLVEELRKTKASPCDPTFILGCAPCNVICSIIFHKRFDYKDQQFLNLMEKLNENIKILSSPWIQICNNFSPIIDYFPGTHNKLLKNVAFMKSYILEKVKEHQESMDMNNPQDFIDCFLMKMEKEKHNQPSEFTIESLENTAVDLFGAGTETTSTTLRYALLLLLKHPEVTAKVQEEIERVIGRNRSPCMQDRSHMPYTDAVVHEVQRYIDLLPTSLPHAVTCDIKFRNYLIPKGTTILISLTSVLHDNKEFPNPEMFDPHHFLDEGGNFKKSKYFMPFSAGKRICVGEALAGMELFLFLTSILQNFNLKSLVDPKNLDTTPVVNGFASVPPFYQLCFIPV

Row | SMILES | Ki
1 | C#Cc1ccc(C2(c3ccccc3)NC(=O)NC2=O)cc1 (stereo unspecified) | 18 µM
2 | O=S(=O)(Nc1ccnn1-c1ccccc1)c1ccccc1 | 2 µM

The remaining lines, values ahead:

Row | Ki | SMILES
3 | 21 µM | COc1oc2ccccc2c(=O)c1[C@@H](CC(C)=O)c1ccccc1
4 | 6 µM | O=S(=O)(Nc1ccnn1-c1ccccc1)c1ccc(O)cc1
5 | 25 µM | C#Cc1ccc(S(=O)(=O)NC(=O)NCc2ccccc2)cc1
6 | 7 µM | C#Cc1ccc(S(=O)(=O)NC(=O)Nc2ccccc2)cc1
7 | 48 µM | C#Cc1ccc(S(=O)(=O)NC(=O)NCC(C)C)cc1
8 | 2 µM | O=C(O)Cc1ccccc1Nc1cc(Cl)ccc1Cl
9 | 2.4 µM | CC(=O)c1ccc(S(=O)(=O)Nc2ccnn2-c2ccccc2)cc1
10 | 18 µM | C#Cc1ccc(S(=O)(=O)NC(=O)NCCCC)cc1
11 | 3 µM | C#Cc1ccc(S(=O)(=O)Nc2cc(C)on2)cc1
12 | 15 µM | Cc1ccc(C)c(OCC(C)(C)C(=O)O)c1
13 | 45 µM | CC(C(=O)O)c1ccc(C(=O)c2cccs2)cc1 (stereo unspecified) [SUPROFEN]

What follows are compounds tested against T1, Cytochrome P450 2C9 (assay: Binding affinity for human Cytochrome P450 2C9).
Type: ADME

Row | Ki | SMILES
14 | 29 µM | COc1oc2ccccc2c(=O)c1[C@H](CC(C)=O)c1ccccc1

The compounds below were run against T1, Cytochrome P450 2C9 (assay: Binding affinity was measured on Cytochrome P450 2C9).
Type: ADME

Row | SMILES | Ki
15 | CO[C@@]1(C)C[C@H](c2ccccc2)c2c(c3ccccc3oc2=O)O1 | 1.5 µM
16 | CC1(O)C[C@H](c2ccccc2)c2c(c3ccccc3oc2=O)O1 (stereo partly specified) | 7 µM
17 | CC[C@H](c1ccccc1)c1c(OC)oc2ccccc2c1=O | 14 µM
18 | C[C@@H](O)C[C@H](c1ccccc1)c1c(O)oc2ccccc2c1=O | 3 µM
19 | CC[C@H](c1ccccc1)c1c(OC)c2ccccc2oc1=O | 13 µM
20 | C[C@H](O)C[C@H](c1ccccc1)c1c(O)oc2ccccc2c1=O | 0.4 µM
21 | CO[C@]1(C)C[C@@H](c2ccccc2)c2c(c3ccccc3oc2=O)O1 | 20 µM
22 | CC1(O)C[C@@H](c2ccccc2)c2c(c3ccccc3oc2=O)O1 (stereo partly specified) | 25 µM
23 | CC[C@@H](c1ccccc1)c1c(OC)oc2ccccc2c1=O | 0.1 µM
24 | C[C@@H](O)C[C@@H](c1ccccc1)c1c(O)oc2ccccc2c1=O | 0.1 µM
25 | CC[C@@H](c1ccccc1)c1c(OC)c2ccccc2oc1=O | 6 µM
26 | C[C@H](O)C[C@@H](c1ccccc1)c1c(O)oc2ccccc2c1=O | 3 µM
27 | C#Cc1ccc2c(=O)c(C(C(C)=O)c3ccccc3)c(O)oc2c1 (stereo unspecified) | 1.1 µM
28 | C#Cc1ccc2oc(O)c(C(C(C)=O)c3ccccc3)c(=O)c2c1 (stereo unspecified) | 1.5 µM
29 | [N-]=[N+]=Nc1ccc(S(=O)(=O)Nc2ccnn2-c2ccccc2)cc1 | 0.4 µM
30 | [N-]=[N+]=Nc1ccc2oc(O)c(Cc3c(O)oc4ccc(N=[N+]=[N-])cc4c3=O)c(=O)c2c1 | 3 µM
31 | CO[C@@]1(C)C[C@@H](c2ccccc2)c2c(c3ccccc3oc2=O)O1 (stereo in doubt; 4) | 7 µM
32 | CO[C@@]1(C)C[C@@H](c2ccccc2)c2c(c3ccccc3oc2=O)O1 (stereo in doubt; 6) | 1.1 µM
33 | CC[C@H](c1ccccc1)c1c(O)oc2ccccc2c1=O (stereo in doubt; 8) | 0.5 µM
34 | CC[C@H](c1ccccc1)c1c(O)oc2ccccc2c1=O (stereo in doubt; 9) | 18 µM
35 | COc1c([C@H](CC(C)=O)c2ccccc2)c(=O)oc2ccccc12 (stereo in doubt; 14) | 10 µM
36 | COc1c([C@H](CC(C)=O)c2ccccc2)c(=O)oc2ccccc12 (stereo in doubt; 15) | 2.4 µM
